Reference: patent US20240246942A1, “KINASE INHIBITORS FOR THE TREATMENT OF NEURODEGENERATIVE DISEASES” (priority 2020, published 2024)

Columns and labels:
Test in all cases: biochemical
[1] = molecular target: T1, panel of 374 wild-type kinases (Homo sapiens, UniProt O95835); details: read-out: % Enzyme Activity (relative to DMSO controls), LATS1
T1 construct: purchased Reaction Biology Corporation
T1 sequence (O95835 1-1130): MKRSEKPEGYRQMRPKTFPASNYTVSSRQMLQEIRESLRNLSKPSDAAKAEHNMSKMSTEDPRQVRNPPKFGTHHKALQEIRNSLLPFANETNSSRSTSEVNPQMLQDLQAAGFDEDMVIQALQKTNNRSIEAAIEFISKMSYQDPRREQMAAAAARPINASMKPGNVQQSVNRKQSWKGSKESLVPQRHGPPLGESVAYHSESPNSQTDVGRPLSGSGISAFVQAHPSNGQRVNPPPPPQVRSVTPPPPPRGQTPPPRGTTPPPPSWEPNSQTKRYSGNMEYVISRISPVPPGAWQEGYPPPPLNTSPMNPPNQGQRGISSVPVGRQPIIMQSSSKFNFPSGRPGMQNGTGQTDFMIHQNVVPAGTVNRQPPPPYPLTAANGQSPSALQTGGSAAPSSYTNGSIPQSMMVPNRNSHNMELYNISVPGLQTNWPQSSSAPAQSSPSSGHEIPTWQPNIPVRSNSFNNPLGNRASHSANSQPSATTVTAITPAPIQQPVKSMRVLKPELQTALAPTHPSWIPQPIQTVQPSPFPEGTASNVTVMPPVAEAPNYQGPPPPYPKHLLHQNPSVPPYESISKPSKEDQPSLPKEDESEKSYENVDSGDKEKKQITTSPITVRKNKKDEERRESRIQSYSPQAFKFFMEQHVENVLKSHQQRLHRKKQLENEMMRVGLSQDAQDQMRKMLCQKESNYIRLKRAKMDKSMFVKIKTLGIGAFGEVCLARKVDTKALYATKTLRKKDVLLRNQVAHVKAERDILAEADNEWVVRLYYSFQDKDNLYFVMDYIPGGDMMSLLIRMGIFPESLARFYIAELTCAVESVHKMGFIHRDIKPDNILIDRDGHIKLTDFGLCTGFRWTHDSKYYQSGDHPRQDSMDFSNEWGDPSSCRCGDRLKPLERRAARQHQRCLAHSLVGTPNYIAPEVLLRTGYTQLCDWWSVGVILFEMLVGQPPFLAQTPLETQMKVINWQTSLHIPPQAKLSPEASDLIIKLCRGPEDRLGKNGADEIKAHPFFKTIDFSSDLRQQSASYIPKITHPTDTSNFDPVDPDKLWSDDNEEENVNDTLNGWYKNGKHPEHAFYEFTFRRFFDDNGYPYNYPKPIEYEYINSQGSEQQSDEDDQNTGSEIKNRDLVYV

[2] = molecular target: T2, panel of 374 wild-type kinases (Homo sapiens, UniProt P23443); details: read-out: % Enzyme Activity (relative to DMSO controls), kinase p70S6K/RPS6KB1
T2 construct: purchased Reaction Biology Corporation
T2 sequence (P23443 whole entry): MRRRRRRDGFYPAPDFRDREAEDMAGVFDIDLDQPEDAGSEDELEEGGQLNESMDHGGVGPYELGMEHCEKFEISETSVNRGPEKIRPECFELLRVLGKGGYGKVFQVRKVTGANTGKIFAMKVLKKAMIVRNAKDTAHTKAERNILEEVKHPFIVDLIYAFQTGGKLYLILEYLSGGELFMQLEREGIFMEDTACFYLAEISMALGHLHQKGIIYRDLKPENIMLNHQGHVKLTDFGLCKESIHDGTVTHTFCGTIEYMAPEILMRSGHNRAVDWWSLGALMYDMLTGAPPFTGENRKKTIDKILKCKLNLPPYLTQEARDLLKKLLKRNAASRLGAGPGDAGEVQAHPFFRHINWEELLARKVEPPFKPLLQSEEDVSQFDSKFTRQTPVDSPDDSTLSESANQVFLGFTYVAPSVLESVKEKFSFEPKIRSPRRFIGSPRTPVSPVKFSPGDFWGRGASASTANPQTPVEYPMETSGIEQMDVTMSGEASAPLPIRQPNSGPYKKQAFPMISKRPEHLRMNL

[3] = molecular target: T3, panel of 374 wild-type kinases (Homo sapiens, UniProt P32298); details: read-out: % Enzyme Activity (relative to DMSO controls), GRK4
T3 construct: purchased Reaction Biology Corporation
T3 sequence (P32298 whole entry): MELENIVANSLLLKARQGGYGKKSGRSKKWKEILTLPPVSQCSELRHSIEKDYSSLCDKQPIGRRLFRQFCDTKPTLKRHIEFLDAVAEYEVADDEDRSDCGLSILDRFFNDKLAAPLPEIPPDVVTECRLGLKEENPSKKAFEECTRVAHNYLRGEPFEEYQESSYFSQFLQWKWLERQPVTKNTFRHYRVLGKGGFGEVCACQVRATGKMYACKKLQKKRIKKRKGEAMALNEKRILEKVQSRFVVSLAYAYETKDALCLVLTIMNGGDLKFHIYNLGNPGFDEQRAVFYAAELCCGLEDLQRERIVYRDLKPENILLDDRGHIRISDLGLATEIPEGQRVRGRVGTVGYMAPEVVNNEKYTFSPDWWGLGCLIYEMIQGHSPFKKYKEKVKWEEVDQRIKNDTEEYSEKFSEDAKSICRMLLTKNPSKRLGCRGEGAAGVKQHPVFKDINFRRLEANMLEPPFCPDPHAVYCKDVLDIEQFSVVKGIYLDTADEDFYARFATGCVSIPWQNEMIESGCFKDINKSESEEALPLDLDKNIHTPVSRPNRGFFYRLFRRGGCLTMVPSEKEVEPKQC

[4] = molecular target: T4, panel of 374 wild-type kinases (Homo sapiens, UniProt P53350); details: read-out: % Enzyme Activity (relative to DMSO controls), kinase PLK1
T4 construct: purchased Reaction Biology Corporation
T4 sequence (P53350 whole entry): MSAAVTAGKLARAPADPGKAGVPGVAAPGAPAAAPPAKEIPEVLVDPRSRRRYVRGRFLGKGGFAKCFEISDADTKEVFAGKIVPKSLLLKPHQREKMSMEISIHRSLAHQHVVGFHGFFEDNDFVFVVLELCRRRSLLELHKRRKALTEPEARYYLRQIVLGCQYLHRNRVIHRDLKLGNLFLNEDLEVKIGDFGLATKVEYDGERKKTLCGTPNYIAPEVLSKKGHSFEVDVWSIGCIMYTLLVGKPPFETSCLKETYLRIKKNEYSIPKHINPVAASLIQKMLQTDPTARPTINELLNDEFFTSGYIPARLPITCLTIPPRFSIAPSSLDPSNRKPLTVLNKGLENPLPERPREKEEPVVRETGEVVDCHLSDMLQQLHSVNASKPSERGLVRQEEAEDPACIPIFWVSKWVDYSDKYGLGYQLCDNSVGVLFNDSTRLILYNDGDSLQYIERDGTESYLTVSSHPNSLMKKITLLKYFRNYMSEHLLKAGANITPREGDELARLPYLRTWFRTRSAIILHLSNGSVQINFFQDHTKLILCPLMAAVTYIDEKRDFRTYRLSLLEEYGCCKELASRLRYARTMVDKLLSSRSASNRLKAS

[5] = molecular target: T5, panel of 374 wild-type kinases (Homo sapiens, UniProt Q15375); details: read-out: % Enzyme Activity (relative to DMSO controls), EPHA7
T5 construct: purchased Reaction Biology Corporation
T5 sequence (Q15375 28-998): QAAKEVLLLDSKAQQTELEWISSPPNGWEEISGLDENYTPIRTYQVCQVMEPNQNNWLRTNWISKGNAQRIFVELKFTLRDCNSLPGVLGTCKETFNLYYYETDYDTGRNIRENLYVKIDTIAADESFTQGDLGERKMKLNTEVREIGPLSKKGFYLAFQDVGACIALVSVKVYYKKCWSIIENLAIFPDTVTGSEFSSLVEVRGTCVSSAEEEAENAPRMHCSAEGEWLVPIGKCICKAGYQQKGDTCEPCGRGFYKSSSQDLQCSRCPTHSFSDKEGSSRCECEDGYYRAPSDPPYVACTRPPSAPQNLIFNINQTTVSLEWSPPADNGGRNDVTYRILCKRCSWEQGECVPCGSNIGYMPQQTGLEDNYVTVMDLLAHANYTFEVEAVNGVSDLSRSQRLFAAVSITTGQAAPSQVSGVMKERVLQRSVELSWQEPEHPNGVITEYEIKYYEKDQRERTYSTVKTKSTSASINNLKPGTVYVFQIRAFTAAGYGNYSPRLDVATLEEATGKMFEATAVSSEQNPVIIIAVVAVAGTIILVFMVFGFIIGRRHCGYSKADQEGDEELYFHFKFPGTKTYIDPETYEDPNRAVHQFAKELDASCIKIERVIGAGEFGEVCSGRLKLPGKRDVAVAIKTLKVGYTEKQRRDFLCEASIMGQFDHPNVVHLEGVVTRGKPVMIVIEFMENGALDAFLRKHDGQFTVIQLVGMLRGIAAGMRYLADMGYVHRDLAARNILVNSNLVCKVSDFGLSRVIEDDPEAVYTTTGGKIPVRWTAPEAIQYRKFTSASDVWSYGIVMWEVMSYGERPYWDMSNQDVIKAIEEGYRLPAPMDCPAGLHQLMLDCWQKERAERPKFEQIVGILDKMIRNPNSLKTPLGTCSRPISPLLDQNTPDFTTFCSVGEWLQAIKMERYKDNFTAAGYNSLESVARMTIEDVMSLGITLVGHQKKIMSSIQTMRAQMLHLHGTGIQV

[6] = molecular target: T6, panel of 374 wild-type kinases (Homo sapiens, UniProt Q8TDC3); details: read-out: % Enzyme Activity (relative to DMSO controls), BRSK1
T6 construct: purchased Reaction Biology Corporation
T6 sequence (Q8TDC3 1-778): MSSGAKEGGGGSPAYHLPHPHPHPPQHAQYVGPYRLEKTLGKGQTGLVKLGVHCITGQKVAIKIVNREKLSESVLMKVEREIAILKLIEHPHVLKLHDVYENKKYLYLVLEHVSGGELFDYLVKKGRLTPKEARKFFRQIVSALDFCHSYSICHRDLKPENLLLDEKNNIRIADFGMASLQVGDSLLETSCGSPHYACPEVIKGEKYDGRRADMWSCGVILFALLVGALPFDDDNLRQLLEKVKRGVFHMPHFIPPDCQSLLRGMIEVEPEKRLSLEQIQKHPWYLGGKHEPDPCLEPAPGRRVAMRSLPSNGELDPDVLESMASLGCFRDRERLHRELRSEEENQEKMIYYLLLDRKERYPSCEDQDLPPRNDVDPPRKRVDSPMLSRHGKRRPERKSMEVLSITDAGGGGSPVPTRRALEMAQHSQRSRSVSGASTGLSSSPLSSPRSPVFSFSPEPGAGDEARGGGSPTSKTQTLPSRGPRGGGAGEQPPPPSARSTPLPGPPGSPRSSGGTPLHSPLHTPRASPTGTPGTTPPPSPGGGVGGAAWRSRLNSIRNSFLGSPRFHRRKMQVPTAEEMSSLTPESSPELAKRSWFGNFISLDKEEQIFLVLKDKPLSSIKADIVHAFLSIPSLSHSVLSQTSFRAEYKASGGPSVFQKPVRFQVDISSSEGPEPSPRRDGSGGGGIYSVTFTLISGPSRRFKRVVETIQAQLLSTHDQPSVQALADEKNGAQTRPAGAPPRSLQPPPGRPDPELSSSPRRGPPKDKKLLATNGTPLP

[7] = molecular target: T7, panel of 374 wild-type kinases (Homo sapiens, UniProt Q9H1R3); details: read-out: % Enzyme Activity (relative to DMSO controls), MLCK2/MYLK2
T7 construct: purchased Reaction Biology Corporation
T7 sequence (Q9H1R3 whole entry): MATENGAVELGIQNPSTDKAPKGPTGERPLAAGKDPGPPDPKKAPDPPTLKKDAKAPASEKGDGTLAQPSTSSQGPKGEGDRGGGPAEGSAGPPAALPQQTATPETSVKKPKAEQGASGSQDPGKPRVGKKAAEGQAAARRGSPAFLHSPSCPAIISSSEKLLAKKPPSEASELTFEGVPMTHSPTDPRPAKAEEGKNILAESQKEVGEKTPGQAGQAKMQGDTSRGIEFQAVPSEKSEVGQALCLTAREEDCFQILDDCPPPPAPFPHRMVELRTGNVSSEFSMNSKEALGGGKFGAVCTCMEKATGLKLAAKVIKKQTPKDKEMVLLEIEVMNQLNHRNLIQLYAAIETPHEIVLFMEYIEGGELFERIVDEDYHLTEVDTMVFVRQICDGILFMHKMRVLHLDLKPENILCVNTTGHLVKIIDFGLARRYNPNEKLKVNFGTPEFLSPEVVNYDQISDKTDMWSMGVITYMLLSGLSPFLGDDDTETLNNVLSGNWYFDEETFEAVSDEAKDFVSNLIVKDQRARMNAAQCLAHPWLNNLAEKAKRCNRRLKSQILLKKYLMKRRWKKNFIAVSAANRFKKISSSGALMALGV

[8] = molecular target: T8, panel of 374 wild-type kinases (Homo sapiens, UniProt Q9NWZ3); details: read-out: % Enzyme Activity (relative to DMSO controls), IRAK4
T8 construct: purchased Reaction Biology Corporation
T8 sequence (Q9NWZ3 1-460): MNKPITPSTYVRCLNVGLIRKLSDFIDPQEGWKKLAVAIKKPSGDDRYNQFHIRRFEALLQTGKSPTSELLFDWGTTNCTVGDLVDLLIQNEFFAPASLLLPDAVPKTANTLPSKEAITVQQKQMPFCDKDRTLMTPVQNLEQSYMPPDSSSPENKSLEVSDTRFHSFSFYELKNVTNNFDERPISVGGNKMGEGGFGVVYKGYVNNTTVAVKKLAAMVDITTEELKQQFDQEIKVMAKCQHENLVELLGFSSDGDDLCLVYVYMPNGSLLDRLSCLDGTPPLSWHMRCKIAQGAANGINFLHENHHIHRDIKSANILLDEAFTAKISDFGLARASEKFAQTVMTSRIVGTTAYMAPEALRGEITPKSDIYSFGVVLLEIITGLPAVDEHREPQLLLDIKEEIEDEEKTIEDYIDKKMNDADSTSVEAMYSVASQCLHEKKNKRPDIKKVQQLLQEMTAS

SMILES	remaining activity at 10 µM ([1]; 10 uM) [%]	remaining activity at 10 µM ([2]; 10 uM) [%]	remaining activity at 10 µM ([3]; 10 uM) [%]	remaining activity at 10 µM ([4]; 10 uM) [%]	remaining activity at 10 µM ([5]; 10 uM) [%]	remaining activity at 10 µM ([6]; 10 uM) [%]	remaining activity at 10 µM ([7]; 10 uM) [%]	remaining activity at 10 µM ([8]; 10 uM) [%]	remaining activity at 5 µM [1] [%]	remaining activity at 5 µM [2] [%]	remaining activity at 5 µM [3] [%]	remaining activity at 5 µM [4] [%]	remaining activity at 5 µM [5] [%]	remaining activity at 5 µM [6] [%]	remaining activity at 5 µM [7] [%]	remaining activity at 5 µM [8] [%]
Cc1sc(C(=O)NC2COC2)cc1-n1cc(NC(=O)Nc2c(F)cccc2Cl)cn1 [Compound 27, 4-(4-(3-(2-chloro-6-fluorophenyl)ureido)-1H-pyrazol-1-yl)-5-methyl-N-(oxetan-3-yl)thiophene-2-carboxamide]	97.2	92.1	113	104	98.6	87.8	78.7	103	–	–	–	–	–	–	–	–
O=C(Nc1cnn(-c2csc(C(=O)NC3COC3)c2)c1)Nc1c(F)cccc1Cl [Compound 25, 4-(4-(3-(2-chloro-6-fluorophenyl)ureido)-1H-pyrazol-1-yl)-N-(oxetan-3-yl)thiophene-2-carboxamide]	–	–	–	–	–	–	–	–	93.5	97.7	93.6	95.5	91.2	99.4	83.5	97.8
O=C(Nc1cnn(-c2csc(C(=O)NC3COC3)c2)c1)Nc1ccccc1Cl [Compound 17, 4-(4-(3-(2-chlorophenyl)ureido)-1H-pyrazol-1-yl)-N-(oxetan-3-yl)thiophene-2-carboxamide]	–	–	–	–	–	–	–	–	106	92.1	97	97	103	85.5	89.9	92.1
